Test results reported in patent US20220054494A1, “METHODS FOR TREATING BLADDER AND URETHRA DYSFUNCTION AND DISEASE” (University of Pittsburgh - Of the Commonwealth System of …, priority 2019, published 2022).
“Also recorded” adds a separate entry of the source.

What was measured:
cathepsin B = experiment: Western immunoblotting, cathepsin B; type: in vivo, rat; details: aged rats; oral 8-AG 5 mg/kg/day, 6 weeks
Experimental: Western immunoblotting: Following the testing paradigms, rats were deeply anesthetized, bladders as well as the proximal urethra were removed, and one half of each preparation was homogenized using Lysing Matrix D in a FastPrep 24 instrument (MP Biomedicals, Solon, Ohio) in HBSS [5 mM KCl, 0.3 mM KH2PO4, 138 mM NaCl, 4 mM NaHO3, 0.3 mM Na2HCO3, 0.3 mM Na2HPO4, 5.6 mM glucose, and 10 mM Hepes, pH 7.4 containing a complete protease inhibitor cocktail (1 tablet/10 ml, ROCHE®, Indianapolis, Ind.) and a phosphatase inhibitor cocktail (SIGMA®, 1:100)]. After centrifugation (13000 rpm; 15 min at 4° C.), the membrane protein fraction was prepared by suspending the membrane pellets in lysis buffer containing 0.3 M NaCl, 50 mM Tris-HCl (pH 7.6), and 0.5% Triton X-100 and the same concentration of protease inhibitors as above. The suspensions were incubated on ice and centrifuged (13000 rpm; 15 min at 4° C.). The protein concentrations of the combined supernatants were determined using the PIERCE® BCA protein assay (THERMO SCIENTIFIC®, Rockford, Ill.). […] As a loading control, total protein per sample was determined using Bio-Rad Stain Free SDS-PAGE gel technology. UV-activated protein fluorescence was imaged on a CHEMIDOC® MP (BIO-RAD®). […] The volume (intensity) of each protein species was determined and normalized to total protein using Image Lab software (BIO-RAD®). […]

IL-1beta = experiment: RT-qPCR of bladder IL-1beta mRNA in CYP cystitis model; type: in vivo, rat; details: CYP (75 mg/kg i.p.) female Sprague Dawley rats; oral 8-AG 5 mg/kg/day starting one week prior to CYP
Experimental: Animals: Female Sprague Dawley rats were employed in this example (Charles River; Wilmington, Mass.). Three groups of animals were included. Group 1 received an i.p. injection of saline and was used as a control; groups 2 and 3 received an i.p. injection of cyclophosphamide (CYP, SIGMA-ALDRICH®, St Louis, Mo., day 0, 3, 6, sacrifice day 8, 75 mg/kg, i.p.) with group 3 treated with oral 8-AG (5 mg/kg/day; starting one week prior to CYP). CYP induced bladder inflammation and is a well-established pre-clinical model for BPS/IC.
RT-qPCR: Total RNA was isolated from bladders using TRIZOL® Reagent (THERMO FISHER SCIENTIFIC®; Waltham, Mass.) according to the manufacturer's instructions. The cDNA was synthesized using ISCRIPT™ cDNA synthesis kit (BIO-RAD®). qPCR analysis was performed using Power SYBR™ Green PCR Master Mix (THERMO FISHER SCIENTIFIC®) in the APPLIED BIOSYSTEMS® QUANTSTUDIO™ 3 Real-Time PCR System (THERMO FISHER SCIENTIFIC®). The primers used were as follows: for IL-1beta, 5′-[…]-3′ (forward; SEQ ID NO: 1) and 5′-[…]-3′ (reverse; SEQ ID NO: 2); for MCP-1, 5′-[…]-3′ (forward; SEQ ID NO: 3) and 5′-[…]-3′ (reverse; SEQ ID NO: 4); for β-actin, 5′-ACTCTTCCAGCCTTCCTTC-3′ (forward; SEQ ID NO: 5) and 5′-[…]-3′ (reverse; SEQ ID NO: 6). The threshold cycle (Ct) for target was subtracted from Ct for β-actin to give ΔCt. Results are expressed as 2AC.

## Nc1nc2[nH]c(N)nc2c(=O)[nH]1 [8-AG, 8-Aminoguanine]
Cathepsin B
  cathepsin B expression in urethra: trend toward reversal
IL-1beta
  IL-1beta mRNA expression in bladder: suppressed; also recorded: near the detection limit; also recorded: nearly abolished
